Earlier results as cited in patent US20240009325A1 (PriZm, LLC, priority 2022, published 2024).
Entries after “also recorded” stand apart in the source; their conditions may differ.

What was measured:
mice deficient in MCT8 = conditions: cited from earlier work; for cell entry in absence of MCT8: Mct8 deficient mice
animal models = conditions: mice not neurologically affected; cited from earlier work
MCT8 deficient children = conditions: cited from earlier work; for high blood / serum T3 / neuropsychomotor deficit / neurological symptoms: MCT8 deficient patients
D1 = conditions: cited from earlier work

SMILES	suppressive effect on TSH (mice deficient in MCT8; MCT8 deficient vs normal mice)	cell entry in absence of MCT8 (mice deficient in MCT8)	peripheral and central abnormalities (animal models)	hypermetabolism and nutrition (MCT8 deficient children; 4 MCT8 deficient children, compassionate basis)	high blood / serum T3 (MCT8 deficient children)	neuropsychomotor deficit / neurological symptoms (MCT8 deficient children)	D1 (D1)	T4 serum levels (MCT8 deficient children; clinical trial, Groeneweg et al. 2019)
O=C(O)CCc1cc(I)c(Oc2ccc(O)cc2)c(I)c1 [DITPA, 3,5-diiodothyropropionic acid]	equal suppressive effect	enter cells independent of MCT8	able to restore some	ameliorating	reduction and normalization; also recorded: reduced	not the neuropsychomotor deficit; also recorded: no evidence for improvement		
Cc1cc(OCC(=O)O)cc(C)c1Cc1ccc(O)c(C(C)C)c1 [Sobetirome]			able to restore some					
O=C(O)Cc1cc(I)c(Oc2cc(I)c(O)c(I)c2)c(I)c1 [TETRAC]			able to restore some					
O=C(O)Cc1cc(I)c(Oc2ccc(O)c(I)c2)c(I)c1 [TRIAC, triiodothyroacetic acid]		enter cells independent of MCT8	able to restore some		reduced	no evidence for improvement	increases	significantly reduce
